Experimental data from ChEMBL document CHEMBL1649497, “Comparison of the pharmacodynamics of biapenem in bronchial epithelial lining fluid in healthy volunteers given half-hour and three-hour intravenous infusions” (Antimicrob Agents Chemother, 2009).

Legend:
[1] = T>MIC in healthy human at epithelial lining fluid MIC of 4 ug/ml and compound dose of 0.3 […], iv after 3 hrs; assay type: functional
[2] = T>MIC in healthy human at epithelial lining fluid MIC of 2 ug/ml and compound dose of 0.3 […], iv after 0.5 hrs; assay type: functional
[3] = T>MIC in healthy human at epithelial lining fluid MIC of 2 ug/ml and compound dose of 0.3 […], iv after 3 hrs; assay type: functional
[4] = T>MIC in healthy human at epithelial lining fluid MIC of 1 ug/ml and compound dose of 0.3 […], iv after 0.5 hrs; assay type: functional
[5] = T>MIC in healthy human at epithelial lining fluid MIC of 1 ug/ml and compound dose of 0.3 […], iv after 3 hrs; assay type: functional
[6] = T>MIC in healthy human at epithelial lining fluid MIC of 0.5 ug/ml and compound dose of 0.3 […], iv after 0.5 hrs; assay type: functional
[7] = T>MIC in healthy human at epithelial lining fluid MIC of 0.5 ug/ml and compound dose of 0.3 […], iv after 3 hrs; assay type: functional
[8] = T>MIC in healthy human at epithelial lining fluid MIC of 0.5 ug/ml and compound dose of 0.3 […], iv after […] hrs; assay type: functional
[9] = T>MIC in healthy human at epithelial lining fluid MIC of 0.25 ug/ml and compound dose of 0.3 […], iv after 3 hrs; assay type: functional
[10] = Cmax in plasma of healthy human at 0.3 […], iv after 0.5 hrs; assay type: ADME, organism-based; parameters: route intravenous
[11] = Cmax in plasma of healthy human at 0.3 […], iv after 3 hrs; assay type: ADME, organism-based; parameters: route intravenous
[12] = Tmax in plasma of healthy human at 0.3 […], iv after 0.5 hrs; assay type: ADME, organism-based
[13] = Tmax in plasma of healthy human at 0.3 […], iv after 3 hrs; assay type: ADME, organism-based
[14] = AUC in plasma of healthy human at 0.3 […], iv after 0.5 hrs; assay type: ADME, organism-based; parameters: time < 0.5 hr, route intravenous
[15] = AUC in plasma of healthy human at 0.3 […], iv after 3 hrs; assay type: ADME, organism-based; parameters: time < 3 hr, route intravenous
[16] = Cmax in epithelial lining fluid of healthy human at 0.3 […], iv after 0.5 hrs; assay type: ADME, organism-based; parameters: route intravenous
[17] = Cmax in epithelial lining fluid of healthy human at 0.3 […], iv after 3 hrs; assay type: ADME, organism-based; parameters: route intravenous
[18] = Tmax in epithelial lining fluid of healthy human at 0.3 […], iv after 0.5 hrs; assay type: ADME, organism-based
[19] = Tmax in epithelial lining fluid of healthy human at 0.3 […], iv after 3 hrs; assay type: ADME, organism-based
[20] = AUC in epithelial lining fluid of healthy human at 0.3 […], iv after 0.5 hrs; assay type: ADME, organism-based; parameters: time < 0.5 hr, route intravenous
[21] = AUC in epithelial lining fluid of healthy human at 0.3 […], iv after 3 hrs; assay type: ADME, organism-based; parameters: time < 3 hr, route intravenous
[22] = Drug level in epithelial lining fluid of healthy human at 0.3 […], iv after 0.5 hrs; assay type: ADME, organism-based; conditions: read-out: Drug uptake
[23] = Drug level in epithelial lining fluid of healthy human at 0.3 […], iv after 3 hrs; assay type: ADME, organism-based; conditions: read-out: Drug uptake
[24] = T>MIC in healthy human at plasma MIC of 4 ug/ml and compound dose of 0.3 […], iv after 0.5 hrs; assay type: functional
[25] = T>MIC in healthy human at plasma MIC of 4 ug/ml and compound dose of 0.3 […], iv after 3 hrs; assay type: functional
[26] = T>MIC in healthy human at plasma MIC of 2 ug/ml and compound dose of 0.3 […], iv after 0.5 hrs; assay type: functional
[27] = T>MIC in healthy human at plasma MIC of 2 ug/ml and compound dose of 0.3 […], iv after 3 hrs; assay type: functional
[28] = T>MIC in healthy human at plasma MIC of 1 ug/ml and compound dose of 0.3 […], iv after 0.5 hrs; assay type: functional
[29] = T>MIC in healthy human at plasma MIC of 1 ug/ml and compound dose of 0.3 […], iv after 3 hrs; assay type: functional
[30] = T>MIC in healthy human at plasma MIC of 0.5 ug/ml and compound dose of 0.3 […], iv after 0.5 hrs; assay type: functional
[31] = T>MIC in healthy human at plasma MIC of 0.5 ug/ml and compound dose of 0.3 […], iv after 3 hrs; assay type: functional
[32] = T>MIC in healthy human at plasma MIC of 0.25 ug/ml and compound dose of 0.3 […], iv after 0.5 hrs; assay type: functional
[33] = T>MIC in healthy human at plasma MIC of 0.25 ug/ml and compound dose of 0.3 […], iv after 3 hrs; assay type: functional
[34] = T>MIC in healthy human at epithelial lining fluid MIC of 4 ug/ml and compound dose of 0.3 […], iv after 0.5 hrs; assay type: functional

Cmax [10]: 18100 ng/mL
Cmax [11]: 6800 ng/mL
Tmax [12]: 0.5 h
Tmax [13]: 3 h
AUC at 0.5 h [14]: 25000 ng·h/mL
AUC at 3 h [15]: 25400 ng·h/mL
Cmax [16]: 2350 ng/mL
Cmax [17]: 4360 ng/mL
Tmax [18]: 1.5 h
Tmax [19]: 1.8 h
AUC at 0.5 h [20]: 6400 ng·h/mL
AUC at 3 h [21]: 13300 ng·h/mL
concentration at 0.5 h [22]: 3480 ng/mL
concentration at 3 h [23]: 1330 ng/mL
Compound: C[C@@H](O)[C@H]1C(=O)N2C(C(=O)[O-])=C(SC3Cn4cnc[n+]4C3)[C@H](C)[C@H]12 (some centres undefined) [BIAPENEM]
fT>MIC [1]: 5.1%
fT>MIC [2]: 5.8%
fT>MIC [3]: 17.4%
fT>MIC [4]: 15.5%
fT>MIC [5]: 29.1%
fT>MIC [6]: 25.5%
fT>MIC [7]: 41.4%
fT>MIC [8]: 34.6%
fT>MIC [9]: 52.2%
fT>MIC [24]: 12.6%
fT>MIC [25]: 22.3%
fT>MIC [26]: 21.1%
fT>MIC [27]: 34.3%
fT>MIC [28]: 31.9%
fT>MIC [29]: 43.8%
fT>MIC [30]: 43.1%
fT>MIC [31]: 53.7%
fT>MIC [32]: 53.5%
fT>MIC [33]: 64.5%
fT>MIC [34]: 0%
